Results taken from PMC6449304, “Novel parameter describing restriction endonucleases: Secondary-Cognate-Specificity and chemical stimulation of TsoI leading to substrate specificity change” (Applied Microbiology and Biotechnology, 2019).

Target: T1, TsoI (Thermus scotoductus, UniProt T1RQY5)
T1 construct: gene tsoIRM; native enzyme purified from Thermus scotoductus RFL4; bifunctional REase-MTase, TspDTI subfamily
T1 sequence (T1RQY5 1-1116): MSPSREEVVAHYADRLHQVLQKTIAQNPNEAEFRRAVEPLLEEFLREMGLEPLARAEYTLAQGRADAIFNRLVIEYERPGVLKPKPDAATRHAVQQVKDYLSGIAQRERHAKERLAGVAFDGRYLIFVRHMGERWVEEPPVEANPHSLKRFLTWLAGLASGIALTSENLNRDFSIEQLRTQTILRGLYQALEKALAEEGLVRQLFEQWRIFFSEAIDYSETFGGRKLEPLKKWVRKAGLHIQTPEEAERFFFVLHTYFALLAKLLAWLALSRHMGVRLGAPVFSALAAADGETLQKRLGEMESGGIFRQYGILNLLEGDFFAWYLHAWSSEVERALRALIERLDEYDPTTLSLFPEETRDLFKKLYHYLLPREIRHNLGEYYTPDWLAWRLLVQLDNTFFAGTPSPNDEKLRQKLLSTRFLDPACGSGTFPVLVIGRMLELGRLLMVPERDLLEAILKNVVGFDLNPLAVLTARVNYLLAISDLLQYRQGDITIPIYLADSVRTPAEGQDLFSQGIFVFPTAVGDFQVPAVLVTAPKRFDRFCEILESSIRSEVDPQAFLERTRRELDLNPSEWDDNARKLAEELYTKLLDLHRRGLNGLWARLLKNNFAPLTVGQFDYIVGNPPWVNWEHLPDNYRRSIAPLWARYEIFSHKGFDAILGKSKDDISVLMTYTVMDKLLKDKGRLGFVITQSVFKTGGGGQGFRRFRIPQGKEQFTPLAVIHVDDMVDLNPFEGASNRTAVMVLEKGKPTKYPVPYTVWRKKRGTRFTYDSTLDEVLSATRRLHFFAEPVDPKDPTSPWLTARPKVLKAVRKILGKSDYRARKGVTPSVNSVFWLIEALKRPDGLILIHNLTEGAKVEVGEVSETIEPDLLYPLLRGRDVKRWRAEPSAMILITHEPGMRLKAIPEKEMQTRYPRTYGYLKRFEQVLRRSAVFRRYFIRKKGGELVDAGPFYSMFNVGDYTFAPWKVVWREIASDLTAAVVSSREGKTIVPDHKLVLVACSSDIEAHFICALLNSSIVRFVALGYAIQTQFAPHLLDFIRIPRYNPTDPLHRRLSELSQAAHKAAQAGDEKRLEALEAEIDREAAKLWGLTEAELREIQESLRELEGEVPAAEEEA
Assay: DNA cleavage assay, agarose gel (stimulation of secondary-cognate-specificity cleavage)
Format: biochemical
Conditions: pUC19 supercoiled DNA; 500 uM compound (31.25-500 uM tested); 10 mM Tris-HCl pH 7.5, 10 mM MgCl2, 50 mM NaCl, 55 °C, 1 h; activator, presumed SAM-binding motif

Nc1ncnc2c1ncn2[C@@H]1O[C@H](CSC[C@H](N)C(=O)O)[C@@H](O)[C@H]1O [SAC, S-adenosyl-L-cysteine]
DNA cleavage assay, agarose gel (stimulation of secondary-cognate-specificity cl): efficiency of TsoI SCS cleavage is significantly stimulated by high concentrations of SAC
